As usually defined, the MIC is the smallest concentration in the dilution series that meets the test's criterion for growth inhibition. A high value points to weaker potency.

The structures appear in SMILES notation. ≈ marks a conversion by molar mass, not a printed value.

In the test the test system is Escherichia coli. In words: Minimum inhibitory concentration against Escherichia coli. Format: functional.
In the case of `CCCCN1CCN(c2cc3c(cc2F)c(=O)c(C(=O)O)cn3-c2ccc(F)cc2F)CC1`, the MIC turned out to be 0.8 µg/mL (≈ 1.74 µM).

As to `CCn1cc(C(=O)O)c(=O)c2cc(F)c(N3CC(C)NC(C)C3)cc21` (stereo unspecified), the MIC turned out to be 0.4 µg/mL (≈ 1.15 µM).

`CNCC1CCN(c2cc3c(cc2F)c(=O)c(C(=O)O)cn3C2CCC2)C1` (stereo unspecified) had an MIC of 0.8 µg/mL (≈ 2.14 µM).

As for `NCC1CCN(c2c(F)c(N)c3c(=O)c(C(=O)O)cn(C4CC4)c3c2F)C1` (stereo unspecified), the MIC turned out to be 0.013 µg/mL (≈ 0.0344 µM).

In turn, `NC1CCN(c2c(F)cc3c(=O)c(C(=O)O)cn(C4CC4)c3c2C(F)(F)F)C1` (stereo unspecified) displayed an MIC of 0.1 µg/mL (≈ 0.25 µM).

`COc1c(N2CC(C)NC(C)C2)c(F)cc2c(=O)c(C(=O)O)cn(C3CC3)c12` (stereo unspecified) displayed a minimum inhibitory concentration (MIC) of 0.1 µg/mL (≈ 0.257 µM).

In the case of `CCC1CN(c2cc3c(cc2F)c(=O)c(C(=O)O)cn3-c2ccc(F)cc2F)CCN1` (stereo unspecified), the MIC came to 0.4 µg/mL (≈ 0.927 µM).

As to `NC1CCN(c2c(F)cc3c(=O)c(C(=O)O)cn(C4CC4)c3c2F)C1` (stereo unspecified), 0.013 µg/mL (≈ 0.0372 µM) was the least that counted as inhibitory (MIC).

`CCn1cc(C(=O)O)c(=O)c2cc(F)c(N3CCC(N)C3)c(OC)c21` (stereo unspecified) displayed an MIC of 0.2 µg/mL (≈ 0.572 µM).

`CCN1CCN(c2cc3c(cc2F)c(=O)c(C(=O)O)cn3CC)CC1` showed an MIC of 0.1 µg/mL (≈ 0.288 µM).

The compound `NCC1CCCN(c2c(F)c(N)c3c(=O)c(C(=O)O)cn(C4CC4)c3c2F)C1` (stereo unspecified) had an MIC of 0.05 µg/mL (≈ 0.127 µM).

On to `CCOc1c(N2CCC(C)(CN)C2)c(F)c(N)c2c(=O)c(C(=O)O)cn(C3CC3)c12` (stereo unspecified), for which it took 0.2 µg/mL (≈ 0.478 µM) to inhibit growth (MIC).

With `COc1c(N2CC(C)NC(C)C2)c(F)c(N)c2c(=O)c(C(=O)O)cn(C3CC3)c12` (stereo unspecified), 0.2 µg/mL (≈ 0.495 µM) was the least that counted as inhibitory (MIC).

`CCn1cc(C(=O)O)c(=O)c2cc(F)c(N3CCC(CN)C3)c(F)c21` (stereo unspecified) had an MIC of 0.1 µg/mL (≈ 0.285 µM).

As to `CCn1cc(C(=O)O)c(=O)c2cc(F)c(N3CCC(N)C3)cc21` (stereo unspecified), inhibition of growth (MIC) required 0.4 µg/mL (≈ 1.25 µM).

`CCC1CN(c2cc3c(cc2F)c(=O)c(C(=O)O)cn3C2CC2)CCN1` (stereo unspecified) displayed an MIC of 0.1 µg/mL (≈ 0.278 µM). Compared with the last compound, the MIC is about 4-fold lower.

As for `COc1c(N2CCC(CN)C2)c(F)cc2c(=O)c(C(=O)O)cn(C3CC3)c12` (stereo unspecified), the minimum inhibitory concentration (MIC) came to 0.05 µg/mL (≈ 0.133 µM).

`CCOc1c(N2CCC(C)(CN)C2)c(F)cc2c(=O)c(C(=O)O)cn(C3CC3)c12` (stereo unspecified) yielded an MIC of 0.2 µg/mL (≈ 0.496 µM). This MIC lies about 4-fold higher than the previous one.

Regarding `CC1CN(c2cc3c(cc2F)c(=O)c(C(=O)O)cn3C(C)C)CCN1` (stereo unspecified), the lowest concentration to inhibit growth (MIC) was 0.8 µg/mL (≈ 2.3 µM). Against the preceding compound, the MIC is about 4-fold higher.

In turn, `CC(C)n1cc(C(=O)O)c(=O)c2cc(F)c(N3CCNCC3)cc21` returned a minimum inhibitory concentration (MIC) of 0.8 µg/mL (≈ 2.4 µM).

Regarding `CCn1cc(C(=O)O)c(=O)c2cc(F)c(N3CCNC(C)C3)cc21` (stereo unspecified), the MIC amounted to 0.2 µg/mL (≈ 0.6 µM). Against the preceding compound, the MIC is about 4-fold lower.

As for `CC1(CN)CCN(c2nc3c(cc2F)c(=O)c(C(=O)O)cn3C2CC2)C1` (stereo unspecified), the MIC turned out to be 0.2 µg/mL (≈ 0.555 µM).

With `CC1CN(c2cc3c(cc2F)c(=O)c(C(=O)O)cn3C2CCC2)CCN1` (stereo unspecified), the MIC is 0.4 µg/mL (≈ 1.11 µM).

Take `CNCC1CCN(c2c(F)c(N)c3c(=O)c(C(=O)O)cn(C4CC4)c3c2F)C1` (stereo unspecified): 0.025 µg/mL (≈ 0.0637 µM) was the least that counted as inhibitory (MIC).

`COc1c(N2CCN(C)CC2)c(F)cc2c(=O)c(C(=O)O)cn(C3CC3)c12` returned an MIC of 0.1 µg/mL (≈ 0.266 µM). Against the preceding compound, the MIC is about 4-fold higher.

With `CNCC1CCN(c2nc3c(cc2F)c(=O)c(C(=O)O)cn3C2CC2)C1` (stereo unspecified), the MIC stood at 0.1 µg/mL (≈ 0.277 µM).

For `COc1c(N2CCC(N)C2)c(F)cc2c(=O)c(C(=O)O)cn(C3CC3)c12` (stereo unspecified), inhibition of growth (MIC) required 0.025 µg/mL (≈ 0.0692 µM).

Turning to `COc1c(N2CCC(C)(CN)C2)c(F)cc2c(=O)c(C(=O)O)cn(C3CC3)c12` (stereo unspecified), the lowest concentration to inhibit growth (MIC) was 0.1 µg/mL (≈ 0.257 µM).

The compound `CCN1CCN(c2cc3c(cc2F)c(=O)c(C(=O)O)cn3C(C)C)CC1` yielded an MIC of 1.6 µg/mL (≈ 4.43 µM). Against the preceding compound, the MIC is about 16-fold higher.

`CCNCC1CCN(c2c(F)cc3c(=O)c(C(=O)O)cn(C4CC4)c3c2C(F)(F)F)C1` (stereo unspecified) displayed an MIC of 0.4 µg/mL (≈ 0.906 µM).

Compound `CC1(CN)CCN(c2c(F)c(N)c3c(=O)c(C(=O)O)cn(C4CC4)c3c2F)C1` (stereo unspecified) returned an MIC of 0.2 µg/mL (≈ 0.51 µM).

`CC(C)CN1CCN(c2cc3c(cc2F)c(=O)c(C(=O)O)cn3C2CC2)CC1` registered an MIC of 0.2 µg/mL (≈ 0.516 µM).

Consider `NC1CCN(c2nc3c(cc2F)c(=O)c(C(=O)O)cn3C2CC2)C1` (stereo unspecified), for which the MIC worked out at 0.013 µg/mL (≈ 0.0391 µM).

In turn, `NCC1CCN(c2nc3c(cc2F)c(=O)c(C(=O)O)cn3-c2ccc(F)cc2F)C1` (stereo unspecified) gave an MIC of 0.05 µg/mL (≈ 0.12 µM).

`CCn1cc(C(=O)O)c(=O)c2cc(F)c(N3CCC(N)C3)c(F)c21` (stereo unspecified) showed an MIC of 0.05 µg/mL (≈ 0.148 µM).

In turn, `CC(C)NCC1CCN(c2cc3c(cc2F)c(=O)c(C(=O)O)cn3C2CC2)C1` (stereo unspecified) registered an MIC of 0.4 µg/mL (≈ 1.03 µM).

Regarding `Nc1c(F)c(N2CCC(N)C2)cc2c1c(=O)c(C(=O)O)cn2C1CC1` (stereo unspecified), the MIC was 0.013 µg/mL (≈ 0.0375 µM). Compared with the last compound, the MIC is about 31-fold lower.

In turn, `CCNCC1CCN(c2c(F)cc3c(=O)c(C(=O)O)cn(C4CC4)c3c2OC)C1` (stereo unspecified) registered an MIC of 0.1 µg/mL (≈ 0.248 µM). This MIC lies about 7.7-fold higher than the previous one.

`CC1(CN)CCN(c2cc3c(cc2F)c(=O)c(C(=O)O)cn3C2CC2)C1` (stereo unspecified) displayed an MIC of 0.1 µg/mL (≈ 0.278 µM).

As for `CCOc1c(N2CCCC(N)C2)c(F)c(N)c2c(=O)c(C(=O)O)cn(C3CC3)c12` (stereo unspecified), the MIC was determined as 0.2 µg/mL (≈ 0.495 µM).

Consider `CNCC1CCN(c2cc3c(cc2F)c(=O)c(C(=O)O)cn3C2CC2)C1` (stereo unspecified), for which it took 0.2 µg/mL (≈ 0.556 µM) to inhibit growth (MIC).

Take `CCN1CCN(c2cc3c(cc2F)c(=O)c(C(=O)O)cn3-c2ccc(F)cc2F)CC1`: the MIC was 0.4 µg/mL (≈ 0.927 µM).

In turn, `CC1CN(c2cc3c(cc2F)c(=O)c(C(=O)O)cn3-c2ccc(F)cc2F)CC(C)N1` (stereo unspecified) had an MIC of 0.4 µg/mL (≈ 0.927 µM).

The compound `CCOc1c(N2CCC(N)C2)c(F)c(N)c2c(=O)c(C(=O)O)cn(C3CC3)c12` (stereo unspecified) returned an MIC of 0.05 µg/mL (≈ 0.128 µM).

The compound `COc1c(N2CCCC(CN)C2)c(F)c(N)c2c(=O)c(C(=O)O)cn(C3CC3)c12` (stereo unspecified) came in with an MIC of 0.1 µg/mL (≈ 0.247 µM).

Regarding `CN1CCN(c2cc3c(cc2F)c(=O)c(C(=O)O)cn3C2CC2)CC1`, the lowest concentration to inhibit growth (MIC) was 0.05 µg/mL (≈ 0.145 µM). This MIC is about 2-fold lower than that of the compound before.

The record behind these values is ChEMBL document CHEMBL1132978, “Artificial neural network applied to prediction of fluorquinolone antibacterial activity by topological methods” (2000).
